Test results reported in US8889370B2, “Method of determining inhibitors of coagulation” (Siemens Healthcare Diagnostics Products GmbH, priority 2010, dated 2014).
Where two headings read alike, the source gives them in different places.

Biological target: T1, factor Xa (Homo sapiens, UniProt P00742)
T1 construct: an F Xa reagent consisting of a lyophilized plasma fraction containing factor Xa; purchased Siemens Healthcare Diagnostics (Berichrom heparin assay, F Xa reagent); host or cells: plasma fraction
T1 sequence (P00742 235-488 limits assumed): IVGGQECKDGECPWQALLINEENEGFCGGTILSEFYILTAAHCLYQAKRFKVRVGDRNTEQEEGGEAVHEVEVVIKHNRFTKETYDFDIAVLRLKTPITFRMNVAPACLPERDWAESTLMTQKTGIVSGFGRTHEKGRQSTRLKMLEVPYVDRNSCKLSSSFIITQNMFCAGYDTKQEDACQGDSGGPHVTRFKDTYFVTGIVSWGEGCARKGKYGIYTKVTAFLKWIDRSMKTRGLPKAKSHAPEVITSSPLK
T1 sequence (P00742 41-179 partner limits assumed): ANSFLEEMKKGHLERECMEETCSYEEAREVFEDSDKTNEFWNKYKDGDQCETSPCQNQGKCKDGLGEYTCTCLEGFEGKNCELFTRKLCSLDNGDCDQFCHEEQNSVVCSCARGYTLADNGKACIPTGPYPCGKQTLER
Experiment: Determination of the F Xa binding constant (Ki) of peptide aldehyde ligands, chromogenic assay with Berichrom heparin assay reagents, Dixon plot
Format: biochemical
Protocol: The kinetic data of the peptide aldehyde ligands were determined in chromogenic assay formats by measuring the rate of hydrolysis of chromogenic peptide substrates which compete with the peptide aldehyde ligands for binding to the active site of the particular enzyme, at various substrate concentrations and peptide aldehyde-ligand concentrations. The binding constant (Ki) was determined by a known method (Dixon, M., 1953, Biochem J, 55, 170-171).
The F Xa binding constant was determined using the reagents of the Berichrom® heparin assay from Siemens Healthcare Diagnostics. The Berichrom® heparin assay consists of: an F Xa reagent consisting of a lyophilized plasma fraction containing factor Xa, and additives such as Tris, NaCl, EDTA and preservatives, a chromogenic substrate reagent (Z-D-Leu-Gly-Arg-ANBA-methyl-amide), a dilution reagent for reconstitution, and a dextran sulfate reagent consisting of lyophilized dextran sulfate.
After reconstitution in 10 ml of dilution reagent, the dextran sulfate concentration is 0.02 g/l. The F Xa reagent is reconstituted with the reconstituted dextran sulfate reagent. The substrate reagent, after constitution with 2 ml of deionized water, contains 4 mmol/l Z-D-Leu-Gly-Arg-ANBA-methyl-amide. Dilutions of the substrate reagent were prepared with deionized water. The peptide aldehyde ligands prepared according to example 1 were dissolved in water and used as sample. The assays were carried out automatically in a BCS® XP coagulation analyzer (Siemens Healthcare Diagnostics, Marburg, Germany).
A reaction mix was mixed together as follows:
15 μl of sample (peptide aldehyde ligand B-r-G-R—H or B-f-P—R—H), […]
30 μl of substrate reagent (Z-D-Leu-Gly-Arg-ANBA-methyl-amide).
The reaction rate in mE/min was determined on the basis of the increase in optical density of the reaction mix at a wavelength of 405 nm. For this, the optical density of the reaction mixes was determined in a time interval from 10 to 70 seconds.

## N=C(N)NCCC[C@@H](C=O)NC(=O)[C@@H]1CCCN1C(=O)[C@@H](Cc1ccccc1)NC(=O)CCC(=O)NCCCOCCOCCOCCCNC(=O)CCCC[C@@H]1SC[C@@H]2NC(=O)N[C@@H]21 [B-f-P-R-H, biotinyl-Ttds-D-Phe-Pro-Arg-H]
CB-f-P-R-H 0.01019 μM, Csubstrate = 0.5 mM
  1/Reaction rate: 5.617 min/E
CB-f-P-R-H 0.01019 μM, Csubstrate = 2 mM
  1/Reaction rate: 1.457 min/E
CB-f-P-R-H 0.01019 μM, Csubstrate = 4 mM
  1/Reaction rate: 0.8217 min/E
CB-f-P-R-H 0.02038 μM, Csubstrate = 0.5 mM
  1/Reaction rate: 5.565 min/E
CB-f-P-R-H 0.02038 μM, Csubstrate = 2 mM
  1/Reaction rate: 1.457 min/E
CB-f-P-R-H 0.02038 μM, Csubstrate = 4 mM
  1/Reaction rate: 0.8192 min/E
CB-f-P-R-H 0.04076 μM, Csubstrate = 0.5 mM
  1/Reaction rate: 5.569 min/E
CB-f-P-R-H 0.04076 μM, Csubstrate = 2 mM
  1/Reaction rate: 1.454 min/E
CB-f-P-R-H 0.04076 μM, Csubstrate = 4 mM
  1/Reaction rate: 0.8174 min/E
CB-f-P-R-H 0.08152 μM, Csubstrate = 0.5 mM
  1/Reaction rate: 5.572 min/E
CB-f-P-R-H 0.08152 μM, Csubstrate = 2 mM
  1/Reaction rate: 1.467 min/E
CB-f-P-R-H 0.08152 μM, Csubstrate = 4 mM
  1/Reaction rate: 0.8218 min/E
CB-f-P-R-H 0.10190 μM, Csubstrate = 0.5 mM
  1/Reaction rate: 5.619 min/E
CB-f-P-R-H 0.10190 μM, Csubstrate = 2 mM
  1/Reaction rate: 1.463 min/E
CB-f-P-R-H 0.10190 μM, Csubstrate = 4 mM
  1/Reaction rate: 0.8156 min/E
CB-f-P-R-H 0.16304 μM, Csubstrate = 0.5 mM
  1/Reaction rate: 5.675 min/E
CB-f-P-R-H 0.16304 μM, Csubstrate = 2 mM
  1/Reaction rate: 1.485 min/E
CB-f-P-R-H 0.16304 μM, Csubstrate = 4 mM
  1/Reaction rate: 0.8333 min/E
CB-f-P-R-H 0.20380 μM, Csubstrate = 0.5 mM
  1/Reaction rate: 5.619 min/E
CB-f-P-R-H 0.20380 μM, Csubstrate = 2 mM
  1/Reaction rate: 1.473 min/E
CB-f-P-R-H 0.20380 μM, Csubstrate = 4 mM
  1/Reaction rate: 0.8238 min/E
CB-f-P-R-H 0.32609 μM, Csubstrate = 0.5 mM
  1/Reaction rate: 5.69 min/E
CB-f-P-R-H 0.32609 μM, Csubstrate = 2 mM
  1/Reaction rate: 1.486 min/E
CB-f-P-R-H 0.32609 μM, Csubstrate = 4 mM
  1/Reaction rate: 0.832 min/E
CB-f-P-R-H 0.40761 μM, Csubstrate = 0.5 mM
  1/Reaction rate: 5.694 min/E
CB-f-P-R-H 0.40761 μM, Csubstrate = 2 mM
  1/Reaction rate: 1.489 min/E
CB-f-P-R-H 0.40761 μM, Csubstrate = 4 mM
  1/Reaction rate: 0.8338 min/E
CB-f-P-R-H 0.65217 μM, Csubstrate = 0.5 mM
  1/Reaction rate: 5.785 min/E
CB-f-P-R-H 0.65217 μM, Csubstrate = 2 mM
  1/Reaction rate: 1.51 min/E
CB-f-P-R-H 0.65217 μM, Csubstrate = 4 mM
  1/Reaction rate: 0.8514 min/E
CB-f-P-R-H 0.81522 μM, Csubstrate = 0.5 mM
  1/Reaction rate: 5.868 min/E
CB-f-P-R-H 0.81522 μM, Csubstrate = 2 mM
  1/Reaction rate: 1.521 min/E
CB-f-P-R-H 0.81522 μM, Csubstrate = 4 mM
  1/Reaction rate: 0.8494 min/E
CB-f-P-R-H 1.30435 μM, Csubstrate = 0.5 mM
  1/Reaction rate: 5.959 min/E
CB-f-P-R-H 1.30435 μM, Csubstrate = 2 mM
  1/Reaction rate: 1.562 min/E
CB-f-P-R-H 1.30435 μM, Csubstrate = 4 mM
  1/Reaction rate: 0.8735 min/E
CB-f-P-R-H 1.63043 μM, Csubstrate = 0.5 mM
  1/Reaction rate: 6.263 min/E
CB-f-P-R-H 1.63043 μM, Csubstrate = 2 mM
  1/Reaction rate: 1.591 min/E
CB-f-P-R-H 1.63043 μM, Csubstrate = 4 mM
  1/Reaction rate: 0.9021 min/E
CB-f-P-R-H 2.60870 μM, Csubstrate = 0.5 mM
  1/Reaction rate: 6.441 min/E
CB-f-P-R-H 2.60870 μM, Csubstrate = 2 mM
  1/Reaction rate: 1.672 min/E
CB-f-P-R-H 2.60870 μM, Csubstrate = 4 mM
  1/Reaction rate: 0.9317 min/E
CB-f-P-R-H 3.26087 μM, Csubstrate = 0.5 mM
  1/Reaction rate: 6.663 min/E
CB-f-P-R-H 3.26087 μM, Csubstrate = 2 mM
  1/Reaction rate: 1.715 min/E
CB-f-P-R-H 3.26087 μM, Csubstrate = 4 mM
  1/Reaction rate: 0.9448 min/E
CB-f-P-R-H 4.89130 μM, Csubstrate = 0.5 mM
  1/Reaction rate: 7.084 min/E
CB-f-P-R-H 4.89130 μM, Csubstrate = 2 mM
  1/Reaction rate: 1.84 min/E
CB-f-P-R-H 4.89130 μM, Csubstrate = 4 mM
  1/Reaction rate: 1.026 min/E
CB-f-P-R-H 6.52174 μM, Csubstrate = 0.5 mM
  1/Reaction rate: 7.613 min/E
CB-f-P-R-H 6.52174 μM, Csubstrate = 2 mM
  1/Reaction rate: 1.979 min/E
CB-f-P-R-H 6.52174 μM, Csubstrate = 4 mM
  1/Reaction rate: 1.106 min/E
CB-f-P-R-H 8.15217 μM, Csubstrate = 0.5 mM
  1/Reaction rate: 8.377 min/E
CB-f-P-R-H 8.15217 μM, Csubstrate = 2 mM
  1/Reaction rate: 2.149 min/E
CB-f-P-R-H 8.15217 μM, Csubstrate = 4 mM
  1/Reaction rate: 1.173 min/E
CB-f-P-R-H 13.04348 μM, Csubstrate = 0.5 mM
  1/Reaction rate: 9.739 min/E
CB-f-P-R-H 13.04348 μM, Csubstrate = 2 mM
  1/Reaction rate: 2.499 min/E
CB-f-P-R-H 13.04348 μM, Csubstrate = 4 mM
  1/Reaction rate: 1.359 min/E
Csubstrate 0.5 mM
  Intersect of regression curve 1/reaction rate vs ligand concentration: 5.5934 min/E
  Slope of regression curve 1/reaction rate vs ligand concentration: 0.3216 min/E μM
Csubstrate 2 mM
  Intersect of regression curve 1/reaction rate vs ligand concentration: 1.4588 min/E
  Slope of regression curve 1/reaction rate vs ligand concentration: 0.0806 min/E μM
Csubstrate 4 mM
  Intersect of regression curve 1/reaction rate vs ligand concentration: 0.8202 min/E
  Slope of regression curve 1/reaction rate vs ligand concentration: 0.0421 min/E μM
Average of three Ki values, read-out: KiM average F Xa binding constant
  Ki: 16.9 µM
Intersection of regression curves Csubstrate 2 and 0.5 mM, read-out: Ki2&3 F Xa binding constant
  Ki: 17.2 µM
Intersection of regression curves Csubstrate 4 and 0.5 mM, read-out: Ki1&3 F Xa binding constant
  Ki: 17.1 µM
Intersection of regression curves Csubstrate 4 and 2 mM, read-out: Ki1&2 F Xa binding constant
  Ki: 16.6 µM
Intersections of regression curves not on the x axis
  binding of the peptide aldehyde with F Xa (reversible or irreversible): reversible
